Measured values: US20100160369A1, “S1P1 Agonists and Methods of Making And Using” (EXELIXIS, INC., priority 2008, published 2010)
Where two headings read alike, the source gives them in different places.

Target: S1P1 (Homo sapiens, UniProt P21453)
Assay: CNG cAMP Assay (Assay 1)
Type: cell-based
Parameters: host or cells: HEK293 cells expressing the CNG channel
Outline: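 HEK293 cells expressing CNG channel and S1P1, membrane-potential dye loaded; compounds (top 10 μM, 10-point 3-fold, 1.8% DMSO) added with 25 μM Ro 20-1724, 500 nM NECA and 10 nM S1P for 90 min. T90/T0 fluorescence (Ex 350/Em 590 nm) normalised to NECA-alone vs DMSO; EC50 fitted.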

[1] = footnote 1: Relative EC50 was measured, read-out: Assay 1 Relative EC50

Sequence of S1P1 (P21453 whole entry): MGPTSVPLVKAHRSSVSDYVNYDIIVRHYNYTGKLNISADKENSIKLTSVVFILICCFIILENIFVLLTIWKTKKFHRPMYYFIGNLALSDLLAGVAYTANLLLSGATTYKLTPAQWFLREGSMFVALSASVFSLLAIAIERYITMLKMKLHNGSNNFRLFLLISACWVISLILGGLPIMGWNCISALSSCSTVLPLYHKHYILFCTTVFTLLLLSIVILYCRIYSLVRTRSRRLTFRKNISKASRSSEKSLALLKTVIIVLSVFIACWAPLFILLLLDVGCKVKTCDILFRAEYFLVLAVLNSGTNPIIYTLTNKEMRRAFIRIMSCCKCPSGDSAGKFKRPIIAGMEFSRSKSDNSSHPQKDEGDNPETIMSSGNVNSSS

| SMILES | EC50 (read-out: Assay 1 EC50) | EC50 [1] |
| --- | --- | --- |
| CC(Cc1ccc(-c2noc(-c3cn4cc(C(F)(F)F)cc(Br)c4n3)n2)c(Cl)c1)C(=O)O (stereo not drawn) [Example 189, 3-(4-{5-[8-bromo-6-(trifluoromethyl)imidazo[1,2-a]pyridin-2-yl]-1,2,4-oxadiazol-3-yl}-3-chlorophenyl)-2-methylpropanoic acid] | ≤ 100 nM |  |
| CC(Cc1ccc(-c2noc(-c3cn4cc(C(F)(F)F)cc(Cl)c4n3)n2)c(F)c1)C(=O)O (stereo not drawn) [Example 192, 3-(4-{5-[8-chloro-6-(trifluoromethyl)imidazo[1,2-a]pyridin-2-yl]-1,2,4-oxadiazol-3-yl}-3-fluorophenyl)-2-methylpropanoic acid] | 100 to 500 nM |  |
| NC(CC(=O)O)c1ccc(-c2noc(-c3cn4cc(C(F)(F)F)cc(Cl)c4n3)n2)c(Cl)c1 (stereo not drawn) [Example 193, 3-amino-3-(3-chloro-4-{5-[8-chloro-6-(trifluoromethyl)imidazo[1,2-a]pyridin-2-yl]-1,2,4-oxadiazol-3-yl}phenyl)propanoic acid] | 100 to 500 nM |  |
| NCCOc1ccc(-c2nc(-c3cn4cc(C(F)(F)F)cc(Cl)c4n3)no2)c(Cl)c1 [Example 195, 2-[(3-chloro-4-{3-[8-chloro-6-(trifluoromethyl)imidazo[1,2-a]pyridin-2-yl]-1,2,4-oxadiazol-5-yl}phenyl)oxy]ethanamine] | 100 to 500 nM |  |
| Oc1cc(Cl)c(-c2noc(-c3cn4cc(C(F)(F)F)cc(Br)c4n3)n2)cc1Cl [Example 197, 4-{5-[8-bromo-6-(trifluoromethyl)imidazo[1,2-a]pyridin-2-yl]-1,2,4-oxadiazol-3-yl}-2,5-dichlorophenol] | 100 to 500 nM |  |
| OCCCOc1ccc(-c2noc(-c3cn4cc(C(F)(F)F)cc(Cl)c4n3)n2)c(Cl)c1 [Example 199, 3-[(3-chloro-4-{5-[8-chloro-6-(trifluoromethyl)imidazo[1,2-a]pyridin-2-yl]-1,2,4-oxadiazol-3-yl}phenyl)oxy]propan-1-ol] | 100 to 500 nM |  |
| CC(N)COc1ccc(-c2noc(-c3cn4cc(C(F)(F)F)cc(Cl)c4n3)n2)c(Cl)c1 (stereo not drawn) [Example 200, 1-[(3-chloro-4-{5-[8-chloro-6-(trifluoromethyl)imidazo[1,2-a]pyridin-2-yl]-1,2,4-oxadiazol-3-yl}phenyl)oxy]propan-2-amine] | 100 to 500 nM |  |
| CC(Oc1cc(Cl)c(-c2nc(-c3cn4cc(C(F)(F)F)cc(Cl)c4n3)no2)cc1F)C(=O)O (stereo not drawn) [Example 205, 2-[(5-chloro-4-{3-[8-chloro-6-(trifluoromethyl)imidazo[1,2-a]pyridin-2-yl]-1,2,4-oxadiazol-5-yl}-2-fluorophenyl)oxy]propanoic acid] |  | 100 to 500 nM |
| OCCN1CCC(Oc2ccc(-c3noc(-c4cn5cc(C(F)(F)F)cc(Cl)c5n4)n3)c(Cl)c2)C1 (stereo not drawn) [Example 210, 2-{3-[(3-chloro-4-{5-[8-chloro-6-(trifluoromethyl)imidazo[1,2-a]pyridin-2-yl]-1,2,4-oxadiazol-3-yl}phenyl)oxy]pyrrolidin-1-yl}ethanol] |  | 1000 to 5000 nM |
| O=C(O)C1CC1c1ccc(-c2noc(-c3cn4cc(C(F)(F)F)cc(Cl)c4n3)n2)cc1Cl (stereo not drawn) [Example 215, 2-(2-chloro-4-{5-[8-chloro-6-(trifluoromethyl)imidazo[1,2-a]pyridin-2-yl]-1,2,4-oxadiazol-3-yl}phenyl)cyclopropanecarboxylic acid] | ≤ 100 nM |  |
| CC(CO)Oc1cc(Cl)c(-c2nc(-c3cn4cc(C(F)(F)F)cc(Cl)c4n3)no2)cc1F (stereo not drawn) [Example 217, 2-[(5-chloro-4-{3-[8-chloro-6-(trifluoromethyl)imidazo[1,2-a]pyridin-2-yl]-1,2,4-oxadiazol-5-yl}-2-fluorophenyl)oxy]propan-1-ol] | ≤ 100 nM |  |
| CS(=O)(=O)Nc1ccc(-c2nnc(-c3cn4cc(C(F)(F)F)cc(Cl)c4n3)o2)c(Cl)c1 [Example 218, N-(3-chloro-4-{5-[8-chloro-6-(trifluoromethyl)imidazo[1,2-a]pyridin-2-yl]-1,3,4-oxadiazol-2-yl}phenyl)methanesulfonamide] | 100 to 500 nM |  |
| CC(CC(=O)O)c1ccc(-c2nnc(-c3cn4cc(C(F)(F)F)cc(Cl)c4n3)o2)c(Cl)c1 (stereo not drawn) [Example 219, 3-(3-chloro-4-{5-[8-chloro-6-(trifluoromethyl)imidazo[1,2-a]pyridin-2-yl]-1,3,4-oxadiazol-2-yl}phenyl)butanoic acid] | ≤ 100 nM |  |
| NCC(O)COc1ccc(-c2noc(-c3cn4cc(C(F)(F)F)cc(Cl)c4n3)n2)c(Cl)c1 (stereo not drawn) [Example 223, 1-amino-3-[(3-chloro-4-{5-[8-chloro-6-(trifluoromethyl)imidazo[1,2-a]pyridin-2-yl]-1,2,4-oxadiazol-3-yl}phenyl)oxy]propan-2-ol] | ≤ 100 nM |  |
| Fc1cccc(F)c1-c1nc(-c2cn3cc(C(F)(F)F)cc(Cl)c3n2)no1 [Example 228, 8-chloro-2-[5-(2,6-difluorophenyl)-1,2,4-oxadiazol-3-yl]-6-(trifluoromethyl)imidazo[1,2-a]pyridine] | 100 to 500 nM |  |
| FC(F)(F)c1cc(Cl)c2nc(-c3noc(-c4ccccc4Cl)n3)cn2c1 [Example 229, 8-chloro-2-[5-(2-chlorophenyl)-1,2,4-oxadiazol-3-yl]-6-(trifluoromethyl)imidazo[1,2-a]pyridine] | ≤ 100 nM |  |
| Fc1ccccc1-c1nc(-c2cn3cc(C(F)(F)F)cc(Cl)c3n2)no1 [Example 230, 8-chloro-2-[5-(2-fluorophenyl)-1,2,4-oxadiazol-3-yl]-6-(trifluoromethyl)imidazo[1,2-a]pyridine] | 100 to 500 nM |  |
| O=C(O)C1CN(Cc2ccc(-c3nc(-c4cn5cc(C(F)(F)F)cc(Cl)c5n4)no3)cc2)C1 [Example 231, 1-[(4-{3-[8-chloro-6-(trifluoromethyl)imidazo[1,2-a]pyridin-2-yl]-1,2,4-oxadiazol-5-yl}phenyl)methyl]azetidine-3-carboxylic acid] |  | 5000 to 10000 nM |
| Fc1ccc(-c2nc(-c3cn4cc(C(F)(F)F)cc(Cl)c4n3)no2)c(Cl)c1 [Example 232, 8-chloro-2-[5-(2-chloro-4-fluorophenyl)-1,2,4-oxadiazol-3-yl]-6-(trifluoromethyl)imidazo[1,2-a]pyridine] | 100 to 500 nM |  |
| CS(=O)(=O)Nc1cc(Cl)c(-c2nc(-c3cn4cc(C(F)(F)F)cc(Cl)c4n3)no2)cc1F [Example 234, N-(5-chloro-4-{3-[8-chloro-6-(trifluoromethyl)imidazo[1,2-a]pyridin-2-yl]-1,2,4-oxadiazol-5-yl}-2-fluorophenyl)methanesulfonamide] | ≤ 100 nM |  |
| CS(=O)(=O)Nc1c(F)cc(-c2nc(-c3cn4cc(C(F)(F)F)cc(Cl)c4n3)no2)cc1Cl [Example 236, N-(2-chloro-4-{3-[8-chloro-6-(trifluoromethyl)imidazo[1,2-a]pyridin-2-yl]-1,2,4-oxadiazol-5-yl}-6-fluorophenyl)methane sulfonamide] |  | 5000 to 10000 nM |

More lines, now with the values ahead:

| EC50 (read-out: Assay 1 EC50) | EC50 [1] | SMILES |
| --- | --- | --- |
|  | 5000 to 10000 nM | Cc1cc(C2CC2C(=O)O)c(F)cc1-c1nc(-c2cn3cc(C(F)(F)F)cc(Cl)c3n2)no1 (stereo not drawn) [Example 237, 2-(4-{3-[8-chloro-6-(trifluoromethyl)imidazo[1,2-a]pyridin-2-yl]-1,2,4-oxadiazol-5-yl}-2-fluoro-5-methylphenyl)cyclopropanecarboxylic acid] |
| ≤ 100 nM |  | NCC(O)COc1cc(Cl)c(-c2nnc(-c3cn4cc(C(F)(F)F)cc(Cl)c4n3)s2)cc1F (stereo not drawn) [Example 249, 1-amino-3-[(5-chloro-4-{5-[8-chloro-6-(trifluoromethyl)imidazo[1,2-a]pyridin-2-yl]-1,3,4-thiadiazol-2-yl}-2-fluorophenyl)oxy]propan-2-ol] |
| 100 to 500 nM |  | O=C(O)COc1ccc(-c2noc(-c3cn4cc(C(F)(F)F)cc(Cl)c4n3)n2)c(Cl)c1 [Example 253, [(3-chloro-4-{5-[8-chloro-6-(trifluoromethyl)imidazo[1,2-a]pyridin-2-yl]-1,2,4-oxadiazol-3-yl}phenyl)oxy]acetic acid] |
|  | 5000 to 10000 nM | CC(C)(Oc1ccc(-c2noc(-c3cn4cc(C(F)(F)F)cc(Cl)c4n3)n2)c(Cl)c1)C(=O)O [Example 254, 2-[(3-chloro-4-{5-[8-chloro-6-(trifluoromethyl)imidazo[1,2-a]pyridin-2-yl]-1,2,4-oxadiazol-3-yl}phenyl)oxy]-2-methylpropanoic acid] |
| 100 to 500 nM |  | CC(CN)Oc1ccc(-c2noc(-c3cn4cc(C(F)(F)F)cc(Cl)c4n3)n2)c(Cl)c1 (stereo not drawn) [Example 258, 2-[(3-chloro-4-{5-[8-chloro-6-(trifluoromethyl)imidazo[1,2-a]pyridin-2-yl]-1,2,4-oxadiazol-3-yl}phenyl)oxy]propan-1-amine] |
| ≤ 100 nM |  | Oc1cc(Cl)c(-c2noc(-c3cn4cc(C(F)(F)F)cc(Cl)c4n3)n2)cc1F [Example 260, 5-chloro-4-{5-[8-chloro-6-(trifluoromethyl)imidazo[1,2-a]pyridin-2-yl]-1,2,4-oxadiazol-3-yl}-2-fluorophenol] |
| ≤ 100 nM |  | CC(CO)Oc1c(F)cc(-c2noc(-c3cn4cc(C(F)(F)F)cc(Cl)c4n3)n2)cc1Cl (stereo not drawn) [Example 261, 2-[(2-chloro-4-{5-[8-chloro-6-(trifluoromethyl)imidazo[1,2-a]pyridin-2-yl]-1,2,4-oxadiazol-3-yl}-6-fluorophenyl)oxy]propan-1-ol] |
|  | 1000 to 5000 nM | CC(C)(CO)Oc1c(F)cc(-c2noc(-c3cn4cc(C(F)(F)F)cc(Cl)c4n3)n2)cc1Cl [Example 262, 2-[(2-chloro-4-{5-[8-chloro-6-(trifluoromethyl)imidazo[1,2-a]pyridin-2-yl]-1,2,4-oxadiazol-3-yl}-6-fluorophenyl)oxy]-2-methylpropan-1-ol] |
| ≤ 100 nM |  | Fc1cc(-c2noc(-c3cn4cc(C(F)(F)F)cc(Cl)c4n3)n2)c(Cl)cc1OC1CCNC1 (stereo not drawn) [Example 264, 8-chloro-2-{3-[2-chloro-5-fluoro-4-(pyrrolidin-3-yloxy)phenyl]-1,2,4-oxadiazol-5-yl}-6-(trifluoromethyl)imidazo[1,2-a]pyridine] |
